# Patent US20080032340A1, “Peptide motifs for binding avidin or neutravidin” (University of Arizona, priority 2006, published 2008)
# Read-outs that look alike come from different tables or passages of the source. Where a SMILES comes first, the peptide text is derived from it. Bridges are numbered along the chain shown (N, C = ends).
# Experiments:
# [1] = biological target: T1, streptavidin (Streptomyces avidinii, UniProt P22629); assay: HABA-competitive binding determination, streptavidin-HABA complex
# T1 construct: purchased Pierce
# Experimental: (§1) After 60 minutes, the absorbance of the complex was monitored at 500 nm. To calculate the IC50s of the selected peptides, the average of three separate trials were fitted to the Hill equation, [formula] where [L] is the total ligand concentration, [L]F is free ligand concentration, [L]B is bound ligand concentration and nH is the Hill coefficient (Hill, The possible effects of the aggregation of the molecules of haemoglobin on its dissociation curves. J Physiol 1910; 40:4-8). […] Best fit equations were calculated using KaleidaGraph (Synergy Software).
# [2] = biological target: T2, avidin (Gallus gallus, UniProt P02701); details: pH of 7, literature value; read-out: Kd HABA-avidin; cited from earlier work
# [3] = biological target: T3, NeutrAvidin (Gallus gallus, UniProt P02701); assay: HABA saturation of NeutrAvidin; format: binding; details: calculated value, supplementary material; read-out: dissociation constant of the HABA-NeutrAvidin complex
# T3 construct: purchased Pierce
# Experimental: as §1
# [4] = biological target: T2, avidin; assay: HABA-competitive binding determination, avidin-HABA complex; parameters: purchased Pierce; species or system chicken; details: linear (uncyclized) peptides; read-out: dissociation constant, avidin, linear peptides
# Experimental: as §1
# [5] = biological target: T3, NeutrAvidin; assay: HABA-competitive binding determination, HABA-NeutrAvidin complex; details: linear (uncyclized) peptides; read-out: dissociation constant, Neutravidin, linear peptides
# Experimental: as §1
# [6] = biological target: T3, NeutrAvidin; assay: Phage-displayed cyclic peptide selection against NeutrAvidin (clone sequencing); format: binding
# Experimental: XL1-Blue E. coli containing the phagemid library vector were grown from glycerol stocks in 5 mL of 2×YT media with glucose and ampicillin selection at 37° C. Titered M13KO7 helper phage (5×10^9 pfu) was added when the culture reached an OD600 of 0.8 and was incubated for 1 hour. The culture was then pelleted via centrifugation, the cells were resuspended in 2×YT with ampicillin and kanamycin, and allowed to grow overnight. After 10 hours of incubation, the culture was again pelleted by centrifugation and the supernatant was filtered through a 0.45 μm sterile filter to remove trace E. coli. The phage was isolated from the supernatant by PEG (polyethylene glycol) precipitation. 1 mL of 20% PEG in 2.5 M NaCl was added to the 5 mL of filtered media. The resulting precipitate was isolated by centrifugation at 18,000 rcf. The phage pellet was resuspended in 5 mL of Tris Buffer A (20 mM Tris-HCl, 150 mM NaCl, and 0.05% Tween 20 at pH=7.4). The phage was then re-precipitated with 1 mL PEG/NaCl, isolated via centrifugation, and resuspended in 1 mL of Tris Buffer A.
# 100 μL of the phage solution was then exposed to a well of a NeutrAvidin coated polystyrene plate (Pierce) that had been previously rinsed with Tris Buffer A. After 1 hour of incubation, the phage solution was discarded and the well was washed six times for 10 minutes each with 200 μL of Tris Buffer A. Bound phage was eluted with 200 μL of 0.2 M glycine (pH=2.0) by incubation for 10 minutes, followed by neutralization with 40 μL of 2 M Tris base. The input phage and eluted phage were then used to infect two 5 mL tetracycline-selected cultures of XL1 Blue E. coli (OD600=0.8). After 1 hour, the cells were pelleted and resuspended in 5 mL of 2×YT with ampicillin and glucose. […]
# Phage display selection and synthesis of NeutrAvidin binding peptides. […] The library was expressed as a fusion to the gene III protein of M13 filamentous bacteriophage, C-terminal to the periplasmic signaling sequence and N-terminal to a peptide linker and the rest of the gene III protein (see supplementary material). […]
# T2 sequence (P02701 25-152): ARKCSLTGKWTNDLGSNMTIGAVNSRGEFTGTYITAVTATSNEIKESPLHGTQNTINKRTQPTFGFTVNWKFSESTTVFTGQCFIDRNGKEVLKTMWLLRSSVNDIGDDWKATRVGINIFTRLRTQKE
# T3 sequence (P02701 25-152): as above
# T1 sequence (P22629 25-183): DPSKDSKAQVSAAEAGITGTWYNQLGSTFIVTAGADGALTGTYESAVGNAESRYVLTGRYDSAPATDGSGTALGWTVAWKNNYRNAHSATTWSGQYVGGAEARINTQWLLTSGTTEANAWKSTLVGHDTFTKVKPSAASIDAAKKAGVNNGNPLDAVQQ
Compound,Kd [1] [µM],Kd [4] [µM],Kd [5] [µM],other results
CC(C)C[C@@H]1NC(=O)[C@H](CC(=O)O)NC(=O)[C@@H](N)CSSC[C@@H](C(=O)NCC(N)=O)NC(=O)[C@H](Cc2c[nH]c3ccccc23)NC(=O)[C@@H]2CCCN2C(=O)[C@H](CO)NC(=O)[C@H](C)NC1=O [DLASPW] (H-CDLASPWCG-NH2; disulfide 1-8; N-terminus assumed),> 5000,,,
"O=C(O)c1ccccc1N=Nc1ccc(O)cc1 [HABA, 4′-hydroxyazobenzene-2-carboxylic acid]",,,,Kd [2]: 7 µM; Kd [3]: 15 µM
C[C@@H]1NC(=O)[C@H](CCCNC(=N)N)NC(=O)[C@H](CC(=O)O)NC(=O)[C@@H](N)CSSC[C@@H](C(=O)NCC(N)=O)NC(=O)[C@H](Cc2ccc(O)cc2)NC(=O)[C@@H]2CCCN2C(=O)[C@H](CO)NC1=O [DRASPY] (H-CDRASPYCG-NH2; disulfide 1-8),> 5000,< 500,< 500,
CDRASPWC [not synthesized],,,,"% of clones, Round 3 ([6]; round 3, 15 clones sequenced): 20%; % of clones, Round 4 ([6]; round 4, 26 clones sequenced): 8%; % of clones, Round 5 ([6]; round 5, 40 clones sequenced): 5%"
C[C@@H]1NC(=O)[C@H](CCCNC(=N)N)NC(=O)[C@H](CC(=O)O)NC(=O)[C@@H](N)CSSC[C@@H](C(=O)NCC(N)=O)NC(=O)[C@H](Cc2ccc(O)cc2)NC(=O)[C@@H]2CCCN2C(=O)[C@H]([C@@H](C)O)NC1=O [DRATPY] (H-CDRATPYCG-NH2; disulfide 1-8),> 5000,< 500,< 500,
